ChEMBL document CHEMBL5579887, “Structure-Activity Relationship Studies of Substituted 2-Phenyl-1,2,4-triazine-3,5(2H,4H)-dione Analogues: Development of Potent eEF2K Degraders against Triple-Negative Breast Cancer” (J Med Chem, 2024)
≈ marks a conversion by molar mass, not a printed value.

Key:
[1] = test system: MDA-MB-231; test: cells; conditions: Homo sapiens, MDA-MB-231, 72 h, read-out: INH
Description: Antitumor activity against human MDA-MB-231 cells assessed as inhibition of cell viability by measuring inhibition rate at 1 uM measured after 72 hrs by CCK-8 assay relative to control

[2] = test system: MDA-MB-231; test: cells; conditions: Homo sapiens, MDA-MB-231, 72 h
Description: Antitumor activity against human MDA-MB-231 cells assessed as inhibition of cell viability by measuring inhibition rate measured after 72 hrs by CCK-8 assay relative to control

[3] = test system: MDA-MB-231; test: cells; conditions: Homo sapiens, MDA-MB-231, 72 h, read-out: INH; remark: listed apart in the source
Description: Antitumor activity against human MDA-MB-231 cells assessed as inhibition of cell viability by measuring inhibition rate at 20 uM measured after 72 hrs by CCK-8 assay relative to control

[4] = Kinetic solubility of the compound in PBS buffer at pH 7.4 measured by HPLC analysis
[5] = test system: MDA-MB-231; test: cells; conditions: Homo sapiens, MDA-MB-231, 72 h, read-out: INH; remark: listed apart in the source
Description: Antitumor activity against human MDA-MB-231 cells assessed as inhibition of cell viability at 100 nM measured after 72 hrs by CCK-8 assay

[6] = In vivo antitumor activity against human MDA-MB-231 cells xenografted in female nude mouse assessed as tumor growth inhibition at 10 mg/kg, ip administered every other day relative to control; conditions: MDA-MB-231, read-out: TGI
[7] = target: T1, Eukaryotic elongation factor 2 kinase (Homo sapiens, UniProt O00418); test: Binding affinity to eEF2K (unknown origin) assessed as dissociation constant measured by SPR analysis
T1 sequence (O00418 whole entry): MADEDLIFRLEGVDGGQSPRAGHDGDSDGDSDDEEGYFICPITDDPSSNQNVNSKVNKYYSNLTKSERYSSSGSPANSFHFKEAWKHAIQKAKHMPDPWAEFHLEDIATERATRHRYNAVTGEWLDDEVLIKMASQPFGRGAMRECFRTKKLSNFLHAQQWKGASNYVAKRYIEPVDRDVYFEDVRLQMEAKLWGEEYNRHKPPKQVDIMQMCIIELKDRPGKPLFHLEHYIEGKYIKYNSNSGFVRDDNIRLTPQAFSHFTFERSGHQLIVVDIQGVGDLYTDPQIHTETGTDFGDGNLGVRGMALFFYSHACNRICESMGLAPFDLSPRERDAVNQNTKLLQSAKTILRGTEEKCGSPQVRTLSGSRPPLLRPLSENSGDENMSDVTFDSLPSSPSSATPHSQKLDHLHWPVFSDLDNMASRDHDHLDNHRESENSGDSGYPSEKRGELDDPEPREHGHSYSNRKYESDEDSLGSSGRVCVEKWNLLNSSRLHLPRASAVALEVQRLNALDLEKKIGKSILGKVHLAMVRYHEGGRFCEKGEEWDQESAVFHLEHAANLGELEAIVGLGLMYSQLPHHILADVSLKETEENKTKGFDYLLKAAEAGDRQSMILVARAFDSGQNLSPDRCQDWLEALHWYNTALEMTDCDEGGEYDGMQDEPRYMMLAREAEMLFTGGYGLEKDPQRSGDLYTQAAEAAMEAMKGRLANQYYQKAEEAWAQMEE

SMILES | IC50 [2] | solubility kinetic [4] | Kd [7] | inhibition at 1 µM [1] | inhibition at 20 µM [3] | inhibition at 0.1 µM [5] | inhibition in vivo at 10 mg/kg [6]
Cc1ccc(-n2nc(C(=O)N3CCN(C(=O)N(C)C)CC3)c(=O)n(Cc3cccc(F)c3)c2=O)cc1C |  |  |  |  | 12.8% |  | 
Cc1ccc(-n2nc(C(=O)N3CCC3)c(=O)n(Cc3ccccc3)c2=O)cc1C |  |  |  | 17.7% | 98.7% |  | 
Cc1ccc(-n2nc(C(=O)N3CCN(C(=O)C4CC4)CC3)c(=O)n(Cc3cccc(F)c3)c2=O)cc1C |  |  |  |  | 22.2% |  | 
Cc1ccc(-n2nc(C(=O)N3CCC(F)(F)CC3)c(=O)n(Cc3cccc(F)c3)c2=O)cc1C |  |  |  | 58.6% | 84.3% |  | 
COc1ccccc1CNC(=O)c1nn(-c2ccc(C)c(C)c2)c(=O)n(Cc2ccccc2)c1=O |  | 25 µM (≈ 11.8 µg/mL) |  |  | 17.5% |  | 
Cc1ccc(-n2nc(C#N)c(=O)n(Cc3ccc(F)cc3)c2=O)cc1C |  |  |  | -1.93% | 93.6% |  | 
CCOC(=O)N1CCN(C(=O)c2nn(-c3ccc(C)c(C)c3)c(=O)n(Cc3cccc(F)c3)c2=O)CC1 |  |  |  |  | 95.5% |  | 
O=C(/C=C/c1cccc(C(F)(F)F)c1)c1cc2ccccc2oc1=O | ~1000 nM |  |  |  |  |  | 
CC(=O)O[C@H]1C(=O)[C@@]2(C)[C@H]([C@H](OC(=O)c3ccccc3)[C@]3(O)C[C@H](OC(=O)[C@H](O)[C@@H](NC(=O)c4ccccc4)c4ccccc4)C(C)=C1C3(C)C)[C@]1(OC(C)=O)CO[C@@H]1C[C@@H]2O [PACLITAXEL] | 38.3 nM |  |  | 88.9% |  | 82.4% | 52.7%
Cc1ccc(-n2nc(C(=O)N3CC(NC(=O)OC(C)(C)C)C3)c(=O)n(Cc3cccc(F)c3)c2=O)cc1C |  |  |  |  | 73% |  | 
Cc1ccc(-n2nc(C(=O)N3CCC[C@H](NC(=O)OC(C)(C)C)C3)c(=O)n(Cc3cccc(F)c3)c2=O)cc1C |  |  |  | 8.56% | 98% |  | 
Cc1ccc(-n2nc(C(=O)N3CCN(c4ccccc4)CC3)c(=O)n(Cc3ccccc3)c2=O)cc1C |  |  |  |  | 79% |  | 
Cc1ccc(-n2nc(C(=O)N3CCCNCC3)c(=O)n(Cc3ccccc3)c2=O)cc1C |  |  |  |  | 53.6% |  | 
Cc1ccc(-n2nc(C#N)c(=O)n(Cc3ccccn3)c2=O)cc1C |  |  |  |  | -4.94% |  | 
Cc1ccc(-n2nc(C#N)c(=O)n(Cc3ccncc3)c2=O)cc1C |  |  |  |  | 0.27% |  | 
CCn1c(=O)c2cc(C(N)=O)c(N)nc2n(C2CC2)c1=O |  |  |  |  | 4.67% |  | 
Cc1ccc(-n2nc(C(=O)N3CC(N(C)C(=O)OC(C)(C)C)C3)c(=O)n(Cc3cccc(F)c3)c2=O)cc1C |  |  |  |  | 98.5% |  | 
Cc1ccc(-n2nc(C(=O)NCCN3CCOCC3)c(=O)n(Cc3ccccc3)c2=O)cc1C |  |  |  |  | 60.9% |  | 
Cc1ccc(-n2nc(C#N)c(=O)n(Cc3ccccc3)c2=O)cc1C |  |  |  | 58.1% | 96.4% |  | 
Cc1ccc(-n2nc(C(=O)NC3CCN(Cc4ccccc4)CC3)c(=O)n(Cc3ccccc3)c2=O)cc1C |  |  |  |  | 74.9% |  | 
CCN1CCN(C(=O)c2nn(-c3ccc(C)c(C)c3)c(=O)n(Cc3ccccc3)c2=O)CC1 | > 1000 nM |  |  |  | 93.3% |  | 
Cc1ccc(-n2nc(C(=O)Nc3ccc(CN4CCOCC4)cc3)c(=O)n(Cc3ccccc3)c2=O)cc1C |  | 15 µM (≈ 7.88 µg/mL) |  |  | 52.8% |  | 
Cc1ccc(-n2nc(C(=O)N3CCCN(C)CC3)c(=O)n(Cc3ccccc3)c2=O)cc1C | > 1000 nM |  |  |  | 97.2% |  | 
Cc1ccc(-n2nc(C#N)c(=O)n(Cc3ccccc3F)c2=O)cc1C |  |  |  | -3.59% | 93.5% |  | 
Cc1ccc(-n2nc(C(=O)N3CCN(C(=O)OC(C)(C)C)CC3)c(=O)n(Cc3cccc(F)c3)c2=O)cc1C |  |  |  |  | 95% |  | 
Cc1ccc(-n2nc(C(=O)NCc3ccccn3)c(=O)n(Cc3ccccc3)c2=O)cc1C |  |  |  |  | 71.2% |  | 

Now from value to compound, other results behind:

IC50 [2] | solubility kinetic [4] | Kd [7] | SMILES | inhibition at 1 µM [1] | inhibition at 20 µM [3] | inhibition at 0.1 µM [5] | inhibition in vivo at 10 mg/kg [6]
659 nM | 44 µM (≈ 18.5 µg/mL) |  | Cc1ccc(-n2nc(C(=O)N3CCOCC3)c(=O)n(Cc3ccccc3)c2=O)cc1C | 70.1% | 95.8% |  | 
611 nM | 41 µM (≈ 22.6 µg/mL) |  | Cc1ccc(-n2nc(C(=O)N3CCCN(C(=O)OC(C)(C)C)CC3)c(=O)n(Cc3cccc(F)c3)c2=O)cc1C | 71.1% | 98.3% |  | 
771 nM | 96 µM (≈ 41.9 µg/mL) |  | Cc1ccc(-n2nc(C(=O)N3CCCCC3)c(=O)n(Cc3ccc(F)cc3)c2=O)cc1C | 63.8% | 94.1% |  | 
279 nM | 19 µM (≈ 10.2 µg/mL) |  | Cc1ccc(-n2nc(C(=O)N3CCC(C(=O)OC(C)(C)C)CC3)c(=O)n(Cc3cccc(F)c3)c2=O)cc1C | 90.7% | 90.4% |  | 
> 1000 nM |  |  | Cc1ccc(-n2nc(C(=O)N3CCNCC3)c(=O)n(Cc3ccccc3)c2=O)cc1C |  | 96.7% |  | 
 | 67 µM (≈ 26.8 µg/mL) |  | Cc1ccc(-n2nc(C#N)c(=O)n(Cc3cccc(C(F)(F)F)c3)c2=O)cc1C | 19.3% | 92.9% |  | 
> 1000 nM |  |  | Cc1ccc(-n2nc(C(=O)NCCN(C)C)c(=O)n(Cc3ccccc3)c2=O)cc1C |  | 97.7% |  | 
867 nM | 56 µM (≈ 21.2 µg/mL) |  | Cc1ccc(-n2nc(C(=O)N(C)C)c(=O)n(Cc3ccccc3)c2=O)cc1C | 64% | 89.8% |  | 
 | 99 µM (≈ 55.8 µg/mL) |  | Cc1ccc(-n2nc(C(=O)N3C4CCC3CN(C(=O)OC(C)(C)C)C4)c(=O)n(Cc3cccc(F)c3)c2=O)cc1C |  | 14.5% |  | 
232 nM | 57 µM (≈ 32.2 µg/mL) |  | Cc1ccc(-n2nc(C(=O)N3CCC[C@@H](CNC(=O)OC(C)(C)C)C3)c(=O)n(Cc3cccc(F)c3)c2=O)cc1C | 92.1% | 99.3% |  | 
 | 54 µM (≈ 29 µg/mL) |  | Cc1ccc(-n2nc(C(=O)N3CCCN(C(=O)OC(C)(C)C)C3)c(=O)n(Cc3cccc(F)c3)c2=O)cc1C | 39.9% | 96% |  | 
 | 47 µM (≈ 17.7 µg/mL) |  | Cc1ccc(-n2nc(C(=O)N3CC3)c(=O)n(Cc3ccccc3)c2=O)cc1C |  | 72.7% |  | 
484 nM | 36 µM (≈ 16.4 µg/mL) |  | Cc1ccc(-n2nc(C(=O)N3CCC(F)(F)CC3)c(=O)n(Cc3ccccc3)c2=O)cc1C | 61.5% | 96.8% |  | 
261 nM | 24 µM (≈ 13.6 µg/mL) |  | Cc1ccc(-n2nc(C(=O)N3CCC[C@H](CNC(=O)OC(C)(C)C)C3)c(=O)n(Cc3cccc(F)c3)c2=O)cc1C | 92.2% | 99.9% |  | 
45.9 nM | 62 µM (≈ 26.8 µg/mL) |  | Cc1ccc(-n2nc(C(=O)N3CCCCCC3)c(=O)n(Cc3ccccc3)c2=O)cc1C | 96% | 99.7% |  | 
168 nM | 17 µM (≈ 7.42 µg/mL) |  | Cc1ccc(-n2nc(C(=O)N3CCCCC3)c(=O)n(Cc3cccc(F)c3)c2=O)cc1C | 93.3% | 99.6% |  | 
102 nM | 44 µM (≈ 24.9 µg/mL) | 436 nM | Cc1ccc(-n2nc(C(=O)N3CCCC(CNC(=O)OC(C)(C)C)C3)c(=O)n(Cc3cccc(F)c3)c2=O)cc1C (stereo not drawn) | 91.2% | 96% |  | 
131 nM | 90 µM (≈ 45.8 µg/mL) |  | CCOC(=O)C1CCCN(C(=O)c2nn(-c3ccc(C)c(C)c3)c(=O)n(Cc3cccc(F)c3)c2=O)C1 (stereo not drawn) | 87.6% | 98.4% |  | 
 | 15 µM (≈ 5.26 µg/mL) |  | Cc1ccc(-n2nc(C#N)c(=O)n(Cc3cccc(F)c3)c2=O)cc1C | 23.2% | 91.1% |  | 
 | 71 µM (≈ 20.9 µg/mL) |  | CC#CCn1c(=O)c(C#N)nn(-c2ccc(C)c(C)c2)c1=O |  | 85.5% |  | 
288 nM | 30 µM (≈ 12.1 µg/mL) |  | Cc1ccc(-n2nc(C(=O)N3CCCC3)c(=O)n(Cc3ccccc3)c2=O)cc1C | 83.4% | 95.4% |  | 
132 nM | 57 µM (≈ 24.9 µg/mL) |  | Cc1ccc(-n2nc(C(=O)N3CCC(F)CC3)c(=O)n(Cc3ccccc3)c2=O)cc1C | 89.5% | 99.3% |  | 
 | 106 µM (≈ 35.3 µg/mL) |  | Cc1ccc(-n2nc(C#N)c(=O)n(Cc3cccnc3)c2=O)cc1C |  | 34.8% |  | 
94.1 nM | 20 µM (≈ 8.73 µg/mL) |  | Cc1ccc(-n2nc(C(=O)N3CCCCC3)c(=O)n(Cc3ccccc3F)c2=O)cc1C | 93.5% | 99.2% |  | 
478 nM | 129 µM (≈ 71.2 µg/mL) |  | Cc1ccc(-n2nc(C(=O)N3CCC[C@@H](NC(=O)OC(C)(C)C)C3)c(=O)n(Cc3cccc(F)c3)c2=O)cc1C | 74.1% | 98.3% |  | 
 | 103 µM (≈ 37.3 µg/mL) |  | COc1cccc(Cn2c(=O)c(C#N)nn(-c3ccc(C)c(C)c3)c2=O)c1 | 48.9% | 97.4% |  | 
